Assay results published in ChEMBL document CHEMBL4190378, “Synthesis and evaluation of new 2-chloro-4-aminopyrimidine and 2,6-dimethyl-4-aminopyrimidine derivatives as tubulin polymerization inhibitors” (Bioorg Med Chem Lett, 2018).
Active and inactive are the calls of the source. The rule behind the calls is not given here.

Tests used:
HeLa [1] = assay: Induction of apoptosis in human HeLa cells assessed as necrotic cells level at 50 nM incubated for 48 hrs by Annexin-V/FITC and propidium iodide staining based flow cytometry (reference value: 0.03%); format: functional
HeLa [2] = assay: Induction of apoptosis in human HeLa cells assessed as viable cells level at 500 nM incubated for 72 hrs by Annexin-V/FITC and propidium iodide staining based flow cytometry (reference value: 99.72%); format: functional
HeLa [3] = assay: Induction of cell cycle arrest in human HeLa cells assessed as tetraploid peaks level at 50 nM incubated for 24 hrs by propidium iodide staining based flow cytometry; format: functional
HeLa [4] = assay: Induction of apoptosis in human HeLa cells assessed as late apoptotic cells level at 50 nM incubated for 72 hrs by Annexin-V/FITC and propidium iodide staining based flow cytometry (reference value: 0.02%); format: functional
HeLa [5] = assay: Inhibition of tubulin polymerization in human HeLa cells assessed as morphological changes by measuring microtubule organisation derangement at 0.05 uM incubated for 24 hrs by laser scanning confocal microscopy; format: functional, cell-based
HeLa [6] = assay: Induction of mitochondrial transmembrane potential loss in human HeLa cells assessed as JC1 dye aggregates level at 100 nM incubated for 24 hrs by JC1 staining based flow cytometry (reference value: 95.85%); format: functional
HeLa [7] = assay: Induction of mitochondrial transmembrane potential loss in human HeLa cells assessed as JC1 dye aggregates level at 500 nM incubated for 24 hrs by JC1 staining based flow cytometry (reference value: 95.85%); format: functional
HeLa [8] = assay: Induction of apoptosis in human HeLa cells assessed as early apoptotic cells level at 500 nM incubated for 72 hrs by Annexin-V/FITC and propidium iodide staining based flow cytometry (reference value: 0.16%); format: functional
HeLa [9] = assay: Inhibition of tubulin polymerization in human HeLa cells assessed as morphological changes by measuring spindle microtubule dis-organisation at 0.5 uM incubated for 24 hrs by laser scanning confocal microscopy; format: functional, cell-based
HeLa [10] = assay: Induction of apoptosis in human HeLa cells assessed as necrotic cells level at 50 nM incubated for 72 hrs by Annexin-V/FITC and propidium iodide staining based flow cytometry (reference value: 0.03%); format: functional
HeLa [11] = assay: Induction of cell cycle arrest in human HeLa cells assessed as accumulation at subG1 phase at 500 nM incubated for 24 hrs by propidium iodide staining based flow cytometry; format: functional
HeLa [12] = assay: Induction of mitochondrial transmembrane potential loss in human HeLa cells at 50 nM incubated for 24 hrs by JC1 staining based fluorescence microscopy; format: functional, cell-based
HeLa [13] = assay: Induction of apoptosis in human HeLa cells assessed as early apoptotic cells level at 500 nM incubated for 48 hrs by Annexin-V/FITC and propidium iodide staining based flow cytometry (reference value: 0.16%); format: functional
HeLa [14] = assay: Induction of apoptosis in human HeLa cells assessed as early apoptotic cells level at 50 nM incubated for 72 hrs by Annexin-V/FITC and propidium iodide staining based flow cytometry (reference value: 0.16%); format: functional
HeLa [15] = assay: Induction of cell cycle arrest in human HeLa cells assessed as accumulation at G2/M phase at 100 nM incubated for 24 hrs by propidium iodide staining based flow cytometry; format: functional
HeLa [16] = assay: Induction of apoptosis in human HeLa cells assessed as early apoptotic cells level at 50 nM incubated for 48 hrs by Annexin-V/FITC and propidium iodide staining based flow cytometry (reference value: 0.16%); format: functional
HeLa [17] = assay: Induction of apoptosis in human HeLa cells assessed as viable cells level at 50 nM incubated for 72 hrs by Annexin-V/FITC and propidium iodide staining based flow cytometry (reference value: 99.72%); format: functional
HeLa [18] = assay: Induction of apoptosis in human HeLa cells assessed as viable cells level at 500 nM incubated for 48 hrs by Annexin-V/FITC and propidium iodide staining based flow cytometry (reference value: 99.72%); format: functional
HeLa [19] = assay: Induction of apoptosis in human HeLa cells assessed as viable cells level at 100 nM incubated for 72 hrs by Annexin-V/FITC and propidium iodide staining based flow cytometry (reference value: 99.72%); format: functional
HeLa [20] = assay: Induction of mitochondrial transmembrane potential loss in human HeLa cells assessed as JC1 dye monomers level at 100 nM incubated for 24 hrs by JC1 staining based flow cytometry (reference value: 4.12%); format: functional
HepG2 = assay: Antiproliferative activity against human HepG2 cells incubated for 48 hrs by MTT assay; format: functional, cell-based; details: HepG2, 48 h
HeLa [21] = assay: Induction of cell cycle arrest in human HeLa cells assessed as induction of disappearance of G2/M phase at 500 nM incubated for 48 hrs by propidium iodide staining based flow cytometry; format: functional
HeLa [22] = assay: Induction of apoptosis in human HeLa cells assessed as viable cells level at 100 nM incubated for 48 hrs by Annexin-V/FITC and propidium iodide staining based flow cytometry (reference value: 99.72%); format: functional
HeLa [23] = assay: Induction of apoptosis in human HeLa cells assessed as late apoptotic cells level at 50 nM incubated for 48 hrs by Annexin-V/FITC and propidium iodide staining based flow cytometry (reference value: 0.02%); format: functional
HeLa [24] = assay: Induction of apoptosis in human HeLa cells assessed as late apoptotic cells level at 500 nM incubated for 48 hrs by Annexin-V/FITC and propidium iodide staining based flow cytometry (reference value: 0.02%); format: functional
HeLa [25] = assay: Induction of mitochondrial transmembrane potential loss in human HeLa cells assessed as JC1 dye monomers level at 50 nM incubated for 24 hrs by JC1 staining based flow cytometry (reference value: 4.12%); format: functional
HeLa [26] = assay: Induction of apoptosis in human HeLa cells assessed as viable cells level at 50 nM incubated for 48 hrs by Annexin-V/FITC and propidium iodide staining based flow cytometry (reference value: 99.72%); format: functional
[27] = Inhibition of porcine brain tubulin polymerization measured every 60 secs for 90 mins by DAPI dye based fluorescence assay; parameters: species or system Sus scrofa
HeLa [28] = assay: Induction of mitochondrial transmembrane potential loss in human HeLa cells assessed as JC1 dye monomers level at 500 nM incubated for 24 hrs by JC1 staining based flow cytometry (reference value: 4.12%); format: functional
MDA-MB-231 = assay: Antiproliferative activity against human MDA-MB-231 cells incubated for 48 hrs by MTT assay; format: functional, cell-based; details: MDA-MB-231, 48 h
HeLa [29] = assay: Induction of apoptosis in human HeLa cells assessed as necrotic cells level at 500 nM incubated for 48 hrs by Annexin-V/FITC and propidium iodide staining based flow cytometry (reference value: 0.03%); format: functional
HCT-116 = assay: Antiproliferative activity against human HCT116 cells incubated for 48 hrs by MTT assay; format: functional, cell-based; details: HCT-116, 48 h
HeLa [30] = assay: Induction of apoptosis in human HeLa cells assessed as late apoptotic cells level at 100 nM incubated for 48 hrs by Annexin-V/FITC and propidium iodide staining based flow cytometry (reference value: 0.02%); format: functional
HeLa [31] = assay: Induction of cell cycle arrest in human HeLa cells assessed as induction of disappearance of G2/M phase at 100 nM incubated for 48 hrs by propidium iodide staining based flow cytometry; format: functional
HeLa [32] = assay: Induction of cell cycle arrest in human HeLa cells assessed as tetraploid peaks level at 50 nM incubated for 48 hrs by propidium iodide staining based flow cytometry; format: functional

`COc1ccc(N(C)c2cc(C)nc(C)n2)cc1O` gave an Activity (HeLa [1]) of 0.01%, an Activity (HeLa [2]) of 11.77% and an Activity (HeLa [3]) of 28.3%. The Activity (HeLa [4]) was 7.44%, the inhibition (HeLa [5]) was “Active” and the Activity (HeLa [6]) was 70.71%. For the same molecule, the Activity (HeLa [7]) was 51.28%, the Activity (HeLa [8]) was 66.08% and the inhibition (HeLa [9]) was “Active”. The Activity (HeLa [10]) was 0.6%, the Activity (HeLa [11]) was “Active” and the Activity (HeLa [12]) was “Active”. It also gave an Activity (HeLa [13]) of 69.81%, an Activity (HeLa [14]) of 9.78% and an Activity (HeLa [15]) of 39.6%. The Activity (HeLa [16]) was 10.44%, the Activity (HeLa [17]) was 82.18% and the Activity (HeLa [18]) was 29.81%. The Activity (HeLa [19]) was 65.2%, the Activity (HeLa [20]) was 28.64% and the IC50 (HepG2) was 112 nM. The Activity (HeLa [21]) was “Active”, the Activity (HeLa [22]) was 76.71% and the Activity (HeLa [23]) was 0%. It also gave an Activity (HeLa [24]) of 0.09%, an Activity (HeLa [25]) of 11.47% and an Activity (HeLa [26]) of 89.56%. It also gave an IC50 [27] of 5810 nM, an Activity (HeLa [28]) of 48.26% and an IC50 (MDA-MB-231) of 1100 nM. It also gave an Activity (HeLa [29]) of 0.29%, an IC50 (HCT-116) of 126 nM and an Activity (HeLa [30]) of 0.05%. The Activity (HeLa [31]) was “Active” and the Activity (HeLa [32]) was 38.7%.
